In patent publication US20060089329A1, “Ready-to-use gemcitabine solution concentrates” (priority 2004, published 2006):
Converted amounts (≈) assume the structure as drawn. Counter-ions that a name gives are not always drawn. Like-named read-outs stand apart in the source and are kept apart here.

Key:
[1] = Maximum solubility of gemcitabine hydrochloride at 66 vol. % ethyl alcohol after dissolving at 35-45° C. (Example 4); assay type: physicochemical; conditions: dissolved at 35-45° C. for 6 hours, cooled, stored 24 hours at 19-23° C.
Description: The maximum solubility of gemcitabine hydrochloride was determined with further use of 1N sodium hydroxide, water for injection and absolute ethyl alcohol in a proportion of 66 percent by volume recognized as optimum for that purpose, at increased solution temperatures (35-45° C. for 6 hours under agitation) and subsequent cooling to room temperature (19-23° C.), and then stored for 24 hours at 19-23° C.

[2] = Saturation concentration of gemcitabine in aqueous ethyl alcohol solutions (Example 3); assay type: physicochemical; conditions: interpolation (polynomial of the 6th degree), about 66 percent by volume of ethyl alcohol, pH 10±0.5
Description: In order to determine the saturation concentration of gemcitabine in aqueous ethyl alcohol solutions, gemcitabine solutions with various volume percentages of ethyl alcohol were prepared and analyzed.
Gemcitabine hydrochloride was placed beforehand in the mixing vessel, reacted with a stoichiometric amount of alkalizer (1N sodium hydroxide) dissolved in water, then treated each time with 80% of the required amounts of water for injection as determined in preliminary tests as well as with the amounts of ethyl alcohol required each time.
The components contained in the batch were subsequently dissolved at room temperature (19-23° C.) while agitating for 6 hours such that an undissolved sediment of gemcitabine hydrochloride remained in the mixing vessel. The pH of the batch was determined potentiometrically and, when required, adjusted to a pH of 10 with 1N sodium hydroxide or 1N hydrochloric acid, so as to achieve at this pH a complete conversion of the gemcitabine hydrochloride to the dissolved gemcitabine base.
The batch was stored for 24 hours at 19-23° C. […] These batches were then filtered until free of particles, and the gemcitabine content was determined by HPLC.

[3] = cited from earlier work

Row | content in particle-free supernatant (maximum solubility) ([1]; hydrochloride) [mg/mL] | maximum gemcitabine solubility ([2]; hydrochloride) [mg/mL] | solubility at 6 h ([1]; aqueous ethyl alcohol solution, aqueous with cosolvent or surfactant or cyclodextrin, thermodynamic from solid, read-out: content in particle-free supernatant (maximum solubility)) [mg/mL] | solubility at 6 h ([2]; aqueous ethyl alcohol solution, 21 °C, pH 10, aqueous with cosolvent or surfactant or cyclodextrin, thermodynamic from solid, read-out: maximum gemcitabine solubility) [mg/mL] | SMILES | solubility in water ([3]; pH of 5) [mg/mL] | solubility in water ([3]; pH of 7) [mg/mL] | solubility in water ([3]; pH of 9) [mg/mL] | solubility in water ([3]; pH range of 2.7 to 3.3)
1 | 108.3 | 55 |  |  | Nc1ccn([C@@H]2O[C@H](CO)[C@@H](O)C2(F)F)c(=O)n1 [gemcitabine hydrochloride] |  |  |  | 
2 |  |  | 95.1 (≈ 361 mM) | 50 (≈ 190 mM) | Nc1ccn([C@@H]2O[C@H](CO)[C@@H](O)C2(F)F)c(=O)n1 [gemcitabine, 2′-deoxy-2′,2′-difluorocytidine] | 16.0 (≈ 60.8 mM) | 15.3 (≈ 58.1 mM) | 15.8 (≈ 60 mM) | about 38 mg/ml
